Results reported in article PMC6711031, “Discovery of new butyrylcholinesterase inhibitors via structure-based virtual screening” (Journal of Enzyme Inhibition and Medicinal Chemistry, 2019).
Like-named read-outs stand apart in the source and are kept apart here.

Biological target: T1, BChE from equine serum (Equus caballus, UniProt P81908)
T1 construct: BChE from equine serum (Sigma); purchased Sigma; host or cells: equine serum
Experiment: biochemical
Details: eqBChE 0.22 U/mL, Tris-HCl pH 8.0, 20 min preincubation at 37 °C, butyrylthiocholine iodide 0.5 mM, read at 412 nm
Experimental: Selected hits were obtained from NCI and they were provided as dry powders in variable quantities (5–10 mg). […] Subsequently, they were diluted to the required concentrations with Tris buffer pH 8.0 for the assay. Enzymatic inhibition assays were performed on BChE from equine serum (Sigma), according to the spectrophotometric Ellman's method. The experiment was performed in 48-well plates in a final volume of 100 µL. Each well contained 0.22 U/mL eqBChE dissolved in Tris–HCl buffer, pH 8.0. They were preincubated for 20 min at different compound concentrations at 37 °C. Then 0.5 mM butyrylthiocholine iodide (Sigma) and 0.35 mM 5,5′-dithiobis -2-nitrobenzoico (DTNB; Sigma) were added. Colour development was measured spectrophotometrically at 412 nm using microplate reader (BioTek ELx800) at a rate of one measurement per minute over 15 min period. […] All samples were assayed in at least duplicate measurements. In general, the amount of DMSO was kept below 1% in the assay. IC50 values were determined graphically from inhibition curves using Graph Pad prism version 6, Graph Pad Software, Inc..

T1 sequence (P81908 whole entry): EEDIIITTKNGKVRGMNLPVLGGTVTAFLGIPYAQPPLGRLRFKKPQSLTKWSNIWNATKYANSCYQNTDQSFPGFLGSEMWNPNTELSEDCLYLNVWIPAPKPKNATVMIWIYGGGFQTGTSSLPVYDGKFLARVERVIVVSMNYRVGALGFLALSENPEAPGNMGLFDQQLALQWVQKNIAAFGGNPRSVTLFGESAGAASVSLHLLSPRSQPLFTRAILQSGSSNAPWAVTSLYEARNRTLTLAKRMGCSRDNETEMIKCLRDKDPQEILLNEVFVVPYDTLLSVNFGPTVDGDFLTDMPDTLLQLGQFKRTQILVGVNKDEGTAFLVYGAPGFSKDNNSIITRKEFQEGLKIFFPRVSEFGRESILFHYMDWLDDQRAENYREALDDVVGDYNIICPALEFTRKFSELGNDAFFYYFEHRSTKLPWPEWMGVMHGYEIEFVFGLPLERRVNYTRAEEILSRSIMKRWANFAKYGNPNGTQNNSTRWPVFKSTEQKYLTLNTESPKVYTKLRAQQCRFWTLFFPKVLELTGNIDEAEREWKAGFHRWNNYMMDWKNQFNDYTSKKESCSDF

Row | Compound | IC50 (read-out: IC50 value) | IC50 (IC50 value)
1 | O=C1CC2COc3ccc(OCCN4CCCC4)cc3C2=NN1c1ccccc1 (stereo not drawn) [Compound 4, 2-phenyl-9–(2-(pyrrolidin-1-yl)ethoxy)-4a,5-dihydro-2H-chromeno[4,3-c]pyridazin-3(4H)-one] | 8.3 ± 0.07 µM | –
2 | OC(c1ccccc1)C(NCCNCc1ccccc1)c1ccccc1 (stereo not drawn) [Compound 12, 2-[2-(benzylamino)ethylamino]-1,2-diphenylethanol] | 22.2 ± 0.12 µM | –
3 | NCCC1CCc2[nH]c3ccccc3c2C1 (stereo not drawn) [Compound 26, 2–(2,3,4,9-tetrahydro-1H-carbazol-3-yl)ethanamine] | – | 39.7 ± 0.16 µM
